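Exposure lasted 48 hours, with cells grown in 96-well plates and compounds tested at five concentrations. The concentration for 50% growth inhibition is given as GI50.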 Calls of active or inactive are those of the source. Cut-off read from the data, not from the text of the source: active = GI50 up to about 1.1 µM and inactive = higher.
Assays:
Experiment in all cases: inhibition of tumour cell growth, NCI panel, 48 h
[1] = tested on: TK-10
[2] = tested on: EKVX
[3] = tested on: HOP-92
[4] = tested on: HT-29
[5] = tested on: M14
[6] = tested on: OVCAR-3
[7] = tested on: CAKI-1
[8] = tested on: OVCAR-8
[9] = tested on: UACC-257
[10] = tested on: Malme-3M
[11] = tested on: 786-0
[12] = tested on: NCI-H460
[13] = tested on: T47D
[14] = tested on: SK-MEL-2
[15] = tested on: SN12C
[16] = tested on: RPMI-8226
[17] = tested on: SK-OV-3
[18] = tested on: OVCAR-5
[19] = tested on: UACC-62
[20] = tested on: HCC 2998

| SMILES | GI50 [1] | GI50 [2] | GI50 [3] | GI50 [4] | GI50 [5] | GI50 [6] | GI50 [7] | GI50 [8] | GI50 [9] | GI50 [10] | GI50 [11] | GI50 [12] | GI50 [13] | GI50 [14] | GI50 [15] | GI50 [16] | GI50 [17] | GI50 [18] | GI50 [19] | GI50 [20] |
| --- | --- | --- | --- | --- | --- | --- | --- | --- | --- | --- | --- | --- | --- | --- | --- | --- | --- | --- | --- | --- |
| CN1CCN(CC(=O)N2c3ccccc3Sc3cc4ccccc4cc32)CC1 | 15.7 µM (inactive) | 11.8 µM (inactive) | 10.6 µM (inactive) | 4.31 µM (inactive) | 13.8 µM (inactive) | 12.9 µM (inactive) | 13.1 µM (inactive) | 17.5 µM (inactive) | 11.6 µM (inactive) | 13.6 µM (inactive) | 13.3 µM (inactive) | 16 µM (inactive) | 19.7 µM (inactive) | 17.5 µM (inactive) | 12.1 µM (inactive) | 14.6 µM (inactive) | 16.1 µM (inactive) | 14.8 µM (inactive) | 17.1 µM (inactive) | – |
| Cn1c(=O)c2nc(SCc3ccccn3)[nH]c2n(C)c1=S | 86.7 µM (inactive) | 74 µM (inactive) | 39.2 µM (inactive) | > 100 µM (inactive) | > 100 µM (inactive) | > 100 µM (inactive) | > 100 µM (inactive) | 56 µM (inactive) | > 100 µM (inactive) | > 100 µM (inactive) | 67.5 µM (inactive) | > 100 µM (inactive) | 66.8 µM (inactive) | 52.8 µM (inactive) | 74.1 µM (inactive) | > 100 µM (inactive) | 27.7 µM (inactive) | > 100 µM (inactive) | 34 µM (inactive) | – |
| c1cc(NNc2cccc(-c3nnn[nH]3)c2)cc(-c2nnn[nH]2)c1 | > 100 µM (inactive) | > 100 µM (inactive) | > 100 µM (inactive) | > 100 µM (inactive) | > 100 µM (inactive) | > 100 µM (inactive) | > 100 µM (inactive) | > 100 µM (inactive) | > 100 µM (inactive) | > 100 µM (inactive) | > 100 µM (inactive) | > 100 µM (inactive) | > 100 µM (inactive) | > 100 µM (inactive) | > 100 µM (inactive) | > 100 µM (inactive) | > 100 µM (inactive) | > 100 µM (inactive) | > 100 µM (inactive) | – |
| COc1cccc2c1C1(O)C2CCCCCCCCCC12OCCCO2 (centres undefined) | 49.7 µM (inactive) | – | – | 10.8 µM (inactive) | > 58.1 µM (inactive) | > 40.2 µM (inactive) | > 100 µM (inactive) | > 41.8 µM (inactive) | > 69.2 µM (inactive) | > 47 µM (inactive) | 32.7 µM (inactive) | 6.25 µM (inactive) | 23.4 µM (inactive) | > 40.5 µM (inactive) | > 49.7 µM (inactive) | 7.29 µM (inactive) | > 45.3 µM (inactive) | > 40.7 µM (inactive) | > 100 µM (inactive) | > 34.2 µM (inactive) |
| CC(C)(C)c1cc(C(C)(C)C)c2sc(=S)oc2c1O | 1.18 µM (inactive) | 3.85 µM (inactive) | 14.1 µM (inactive) | 14.9 µM (inactive) | 10.4 µM (inactive) | 5.14 µM (inactive) | 5.64 µM (inactive) | 6.34 µM (inactive) | 14.3 µM (inactive) | 15.8 µM (inactive) | 7.45 µM (inactive) | 6.1 µM (inactive) | 5.19 µM (inactive) | 8.79 µM (inactive) | 6.14 µM (inactive) | 7.33 µM (inactive) | 17.9 µM (inactive) | 7.46 µM (inactive) | 10.4 µM (inactive) | – |
| CNC(=S)c1nnsc1N | > 100 µM (inactive) | > 100 µM (inactive) | – | – | > 100 µM (inactive) | 0.479 µM (active) | > 100 µM (inactive) | > 100 µM (inactive) | > 100 µM (inactive) | > 100 µM (inactive) | > 100 µM (inactive) | 0.71 µM (active) | 2.03 µM (inactive) | > 100 µM (inactive) | > 100 µM (inactive) | 0.9 µM (active) | > 100 µM (inactive) | > 100 µM (inactive) | > 100 µM (inactive) | 29.5 µM (inactive) |
| O=C1c2ccccc2C(=O)c2c(NCC(O)CO)ccc(NCC(O)CO)c21 (centres undefined) | 72.4 µM (inactive) | > 100 µM (inactive) | – | 56.6 µM (inactive) | – | 79.6 µM (inactive) | 56.6 µM (inactive) | 69.2 µM (inactive) | > 100 µM (inactive) | 91.2 µM (inactive) | 69.7 µM (inactive) | 61 µM (inactive) | > 100 µM (inactive) | 24.4 µM (inactive) | 71.3 µM (inactive) | 65 µM (inactive) | 40.9 µM (inactive) | > 100 µM (inactive) | 51.5 µM (inactive) | 72.6 µM (inactive) |
| NC(=O)N/N=C(\Cc1nc2ccc(Cl)cc2nc1O)C(=O)Nc1ccc(Cl)cc1Cl | > 100 µM (inactive) | 10.6 µM (inactive) | – | > 100 µM (inactive) | > 100 µM (inactive) | > 100 µM (inactive) | > 100 µM (inactive) | > 100 µM (inactive) | > 100 µM (inactive) | > 100 µM (inactive) | > 100 µM (inactive) | > 100 µM (inactive) | > 100 µM (inactive) | > 100 µM (inactive) | > 100 µM (inactive) | > 100 µM (inactive) | > 100 µM (inactive) | > 100 µM (inactive) | > 100 µM (inactive) | > 100 µM (inactive) |
| COC(=O)[C@]12CSC[C@H]1C[C@H](c1ccccc1OC)N2 | > 100 µM (inactive) | > 100 µM (inactive) | – | – | > 100 µM (inactive) | > 100 µM (inactive) | > 100 µM (inactive) | > 100 µM (inactive) | > 100 µM (inactive) | > 100 µM (inactive) | > 100 µM (inactive) | > 100 µM (inactive) | > 100 µM (inactive) | > 100 µM (inactive) | > 100 µM (inactive) | > 100 µM (inactive) | > 100 µM (inactive) | > 100 µM (inactive) | > 100 µM (inactive) | > 100 µM (inactive) |
| CC(=O)N(CCc1ccccc1)C(C#N)c1ccccc1 (centres undefined) | > 100 µM (inactive) | > 100 µM (inactive) | – | > 100 µM (inactive) | > 100 µM (inactive) | 70.1 µM (inactive) | > 100 µM (inactive) | > 100 µM (inactive) | > 100 µM (inactive) | > 100 µM (inactive) | > 100 µM (inactive) | – | > 100 µM (inactive) | > 100 µM (inactive) | > 100 µM (inactive) | > 100 µM (inactive) | > 100 µM (inactive) | > 100 µM (inactive) | > 100 µM (inactive) | > 100 µM (inactive) |
| C1=N\c2ccc(cc2)-c2ccc(cc2)/N=C\c2ccc(cc2)OCc2cccc(n2)COc2ccc/1cc2 | – | 45.8 µM (inactive) | > 100 µM (inactive) | > 100 µM (inactive) | > 100 µM (inactive) | > 100 µM (inactive) | > 100 µM (inactive) | 25.1 µM (inactive) | > 100 µM (inactive) | 33 µM (inactive) | > 100 µM (inactive) | > 100 µM (inactive) | > 100 µM (inactive) | > 100 µM (inactive) | > 100 µM (inactive) | > 100 µM (inactive) | 61.2 µM (inactive) | > 100 µM (inactive) | > 100 µM (inactive) | – |
| C=CCN1C[C@@H](C)N([C@@H](c2ccccc2)c2ccc(C(=O)N(CC)CC)cc2)C[C@@H]1C | – | > 100 µM (inactive) | 8.43 µM (inactive) | > 100 µM (inactive) | > 100 µM (inactive) | > 100 µM (inactive) | > 100 µM (inactive) | > 100 µM (inactive) | – | > 100 µM (inactive) | > 100 µM (inactive) | – | 65.8 µM (inactive) | > 100 µM (inactive) | > 100 µM (inactive) | 95.5 µM (inactive) | > 100 µM (inactive) | > 100 µM (inactive) | > 100 µM (inactive) | – |
| CN(C)CCNc1c([N+](=O)[O-])sc2ccc(Cl)cc12 | 91 µM (inactive) | 44.7 µM (inactive) | – | 5.89 µM (inactive) | > 100 µM (inactive) | > 100 µM (inactive) | – | 17.3 µM (inactive) | – | 26.9 µM (inactive) | 12.2 µM (inactive) | 5.38 µM (inactive) | 23.6 µM (inactive) | 33.5 µM (inactive) | 7.66 µM (inactive) | > 100 µM (inactive) | 25.5 µM (inactive) | > 100 µM (inactive) | 14 µM (inactive) | 15.7 µM (inactive) |
| Cc1cc(N(CCC#N)CCC#N)ccc1C(/N=N/c1ccc([N+](=O)[O-])cc1)=N\NC(=O)c1ccccc1 | 61.9 µM (inactive) | 63.4 µM (inactive) | – | 24.5 µM (inactive) | 86.9 µM (inactive) | 46.1 µM (inactive) | 72.1 µM (inactive) | 56.5 µM (inactive) | 61.8 µM (inactive) | 56.9 µM (inactive) | 47.9 µM (inactive) | 37.2 µM (inactive) | 27 µM (inactive) | 67 µM (inactive) | 43.3 µM (inactive) | 75.9 µM (inactive) | 49.5 µM (inactive) | > 100 µM (inactive) | 31 µM (inactive) | 40.5 µM (inactive) |
| CC1OC(OC2C(CO)OC(O[C@H]3CC[C@@]4(C)C(=CC[C@H]5[C@@H]6C[C@@H]7O[C@](O)(CC[C@@H](C)COC8OC(CO)C(O)C(O)C8O)[C@@H](C)[C@@H]7[C@@]6(C)CC[C@@H]54)C3)C(OC3OC(C)C(O)C(O)C3O)C2O)C(O)C(O)C1O (some centres undefined) | 8.45 µM (inactive) | 9.38 µM (inactive) | – | 1.98 µM (inactive) | 1.91 µM (inactive) | 12.9 µM (inactive) | 2.47 µM (inactive) | 2.19 µM (inactive) | 4.02 µM (inactive) | 1.89 µM (inactive) | 2.07 µM (inactive) | 1.88 µM (inactive) | 4.05 µM (inactive) | 4.98 µM (inactive) | 2.2 µM (inactive) | 2.34 µM (inactive) | 2.84 µM (inactive) | 2.52 µM (inactive) | 2.52 µM (inactive) | 2.9 µM (inactive) |
